Values of other authors, collected in patent publication US12436146B2, “Cell-based assay for quantifying the potency and efficacy of cannabinoids and/or terpenoids, and methods of use thereof” (priority 2017, dated 2025).

molecular target: T1, CB1 (Homo sapiens, UniProt P21554); conditions: read-out: CB1 affinity (Ki)
T1 sequence (P21554 whole entry): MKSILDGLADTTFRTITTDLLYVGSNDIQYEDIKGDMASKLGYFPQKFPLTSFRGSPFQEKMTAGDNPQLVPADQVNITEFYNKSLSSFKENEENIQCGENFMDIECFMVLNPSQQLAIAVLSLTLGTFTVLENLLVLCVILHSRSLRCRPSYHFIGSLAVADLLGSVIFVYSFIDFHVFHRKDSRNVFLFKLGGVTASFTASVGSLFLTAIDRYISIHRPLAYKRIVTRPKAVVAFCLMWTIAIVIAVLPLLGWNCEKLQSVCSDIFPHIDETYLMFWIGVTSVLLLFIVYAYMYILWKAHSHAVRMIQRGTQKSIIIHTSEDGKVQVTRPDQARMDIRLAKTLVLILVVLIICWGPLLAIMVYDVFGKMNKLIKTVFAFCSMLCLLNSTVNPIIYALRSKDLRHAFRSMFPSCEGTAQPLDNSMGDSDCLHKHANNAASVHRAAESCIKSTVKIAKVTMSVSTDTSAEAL

Row | SMILES | Ki
1 | CCCCC/C=C\C/C=C\C/C=C\C/C=C\CCCCOC(CO)CO [2-Arachidonyl glyceryl ether] | 21 nM
2 | Cc1c(C(=O)c2cccc3ccccc23)c2ccc([N+](=O)[O-])cc2n1CC1CCCCN1C (stereo not shown) [AM-1221] | 52.3 nM
3 | O=C(c1cccc2ccccc12)c1cn(CCCCCF)c2cc([N+](=O)[O-])ccc12 [AM-1235] | 1.5 nM
4 | N#CCCCCn1cc(C(=O)c2cccc3ccccc23)c2ccccc21 [AM-2232] | 0.28 nM
5 | O=C(O[C@@H]1Cc2c(O)cc(O)cc2O[C@@H]1c1cc(O)c(O)c(O)c1)c1cc(O)c(O)c(O)c1 [EGCG] | 33600 nM
6 | CCCCCn1c(C)c(C(=O)c2cccc3ccccc23)c2ccccc21 [JWH-007] | 9 nM
7 | CCCCCn1cc(C(=O)c2cccc3ccccc23)c2ccccc21 [JWH-018] | 9 ± 5 nM
8 | CCCCCn1cc(C(=O)C2C(C)(C)C2(C)C)c2ccccc21 [UR-144] | 150 nM

molecular target: T2, CB2 (Homo sapiens, UniProt P34972); conditions: read-out: CB2 affinity (Ki)
T2 sequence (P34972 whole entry): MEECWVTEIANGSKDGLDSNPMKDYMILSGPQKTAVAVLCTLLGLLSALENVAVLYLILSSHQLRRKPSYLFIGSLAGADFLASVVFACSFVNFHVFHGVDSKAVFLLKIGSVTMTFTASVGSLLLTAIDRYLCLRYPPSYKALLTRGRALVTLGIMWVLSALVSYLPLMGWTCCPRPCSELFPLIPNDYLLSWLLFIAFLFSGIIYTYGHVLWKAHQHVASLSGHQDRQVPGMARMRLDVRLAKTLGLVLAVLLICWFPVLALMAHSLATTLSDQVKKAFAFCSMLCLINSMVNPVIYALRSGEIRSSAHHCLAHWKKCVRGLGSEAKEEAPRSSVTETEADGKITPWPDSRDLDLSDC

Row | SMILES | Ki
9 | CCCCC/C=C\C/C=C\C/C=C\C/C=C\CCCCOC(CO)CO [2-Arachidonyl glyceryl ether] | 480 nM
10 | Cc1c(C(=O)c2cccc3ccccc23)c2ccc([N+](=O)[O-])cc2n1CC1CCCCN1C (stereo not shown) [AM-1221] | 0.28 nM
11 | O=C(c1cccc2ccccc12)c1cn(CCCCCF)c2cc([N+](=O)[O-])ccc12 [AM-1235] | 20.4 nM
12 | N#CCCCCn1cc(C(=O)c2cccc3ccccc23)c2ccccc21 [AM-2232] | 1.48 nM
13 | O=C(O[C@@H]1Cc2c(O)cc(O)cc2O[C@@H]1c1cc(O)c(O)c(O)c1)c1cc(O)c(O)c(O)c1 [EGCG] | > 50000 nM
14 | CCCCCn1c(C)c(C(=O)c2cccc3ccccc23)c2ccccc21 [JWH-007] | 2.94 nM
15 | CCCCCn1cc(C(=O)c2cccc3ccccc23)c2ccccc21 [JWH-018] | 2.94 ± 2.65 nM
16 | CCCCCn1cc(C(=O)C2C(C)(C)C2(C)C)c2ccccc21 [UR-144] | 1.8 nM
17 | COc1ccc(/C=C/c2cc(OC)cc(=O)o2)cc1 [Yangonin] | > 10000 nM

molecular target: T1, CB1; conditions: not given

Row | SMILES | Efficacy towards CB1
18 | CCCCC/C=C\C/C=C\C/C=C\C/C=C\CCCC(=O)OC(CO)CO [2-Arachidonoylglycerol] | Full agonist
19 | CCCCC/C=C\C/C=C\C/C=C\C/C=C\CCCCOC(CO)CO [2-Arachidonyl glyceryl ether] | Full agonist
20 | Cc1c(C(=O)c2cccc3ccccc23)c2ccc([N+](=O)[O-])cc2n1CC1CCCCN1C (stereo not shown) [AM-1221] | Agonist
21 | O=C(c1cccc2ccccc12)c1cn(CCCCCF)c2cc([N+](=O)[O-])ccc12 [AM-1235] | Agonist
22 | N#CCCCCn1cc(C(=O)c2cccc3ccccc23)c2ccccc21 [AM-2232] | Agonist
23 | O=C(O[C@@H]1Cc2c(O)cc(O)cc2O[C@@H]1c1cc(O)c(O)c(O)c1)c1cc(O)c(O)c(O)c1 [EGCG] | Agonist
24 | CCCCCn1c(C)c(C(=O)c2cccc3ccccc23)c2ccccc21 [JWH-007] | Agonist
25 | CCCCCn1cc(C(=O)c2cccc3ccccc23)c2ccccc21 [JWH-018] | Full agonist
26 | CCCCC/C=C\C/C=C\C/C=C\C/C=C\CCCC(=O)NCCc1ccc(O)c(O)c1 [N-Arachidonoyl dopamine] | Agonist
27 | CCCCCn1cc(C(=O)C2C(C)(C)C2(C)C)c2ccccc21 [UR-144] | Full agonist

molecular target: T2, CB2; conditions: not given

Row | SMILES | Efficacy towards CB2
28 | CCCCC/C=C\C/C=C\C/C=C\C/C=C\CCCCOC(CO)CO [2-Arachidonyl glyceryl ether] | Full agonist
29 | Cc1c(C(=O)c2cccc3ccccc23)c2ccc([N+](=O)[O-])cc2n1CC1CCCCN1C (stereo not shown) [AM-1221] | Agonist
30 | O=C(c1cccc2ccccc12)c1cn(CCCCCF)c2cc([N+](=O)[O-])ccc12 [AM-1235] | Agonist
31 | N#CCCCCn1cc(C(=O)c2cccc3ccccc23)c2ccccc21 [AM-2232] | Agonist
32 | CCCCCn1c(C)c(C(=O)c2cccc3ccccc23)c2ccccc21 [JWH-007] | Agonist
33 | CCCCCn1cc(C(=O)c2cccc3ccccc23)c2ccccc21 [JWH-018] | Full agonist
34 | CCCCCn1cc(C(=O)C2C(C)(C)C2(C)C)c2ccccc21 [UR-144] | Full agonist
